This experiment has as its system pERK in NCI-H358 cells. As to the kind of experiment: Cell-based pERK HTRF assay (pERK inhibition in H358 cells). To be noted: Homo sapiens, NCI-H358, 0.5 h, pERK inhibition IC50, NCI-H358 cells, 30 min incubation; read-out: PERK in H358 cell.

This passage reports IC50 results from US12528818B2, “Compositions and methods for inhibition of RAS” (Leidos Biomedical Research, Inc., priority 2021, dated 2026).

In the case of `C=CC(=O)N1C[C@H](N(C)c2nc(OC[C@@]34CCCN3C[C@H](F)C4)nc3c(F)c(-c4ccc(F)c5sc(N)nc45)c(C(F)(F)F)cc23)C(C)(C)C1` [Compound 301], the IC50 is less than 100 nM. Consider `C=CC(=O)N1C[C@H](C)N(c2nc(OC[C@@]34CCCN3C[C@H](F)C4)nc3cc(-c4ccc(F)c5sc(N)c(C#N)c45)c(C(F)(F)F)cc23)C[C@H]1C` [Compound 304], for which the IC50 was less than 100 nM. Next, `C=CC(=O)N1CC[C@@H](N(C)c2nc(OC[C@@]34CCCN3C[C@H](F)C4)nc3cc(-c4c(F)cc(F)c5sc(N)nc45)c(C(F)(F)F)cc23)C1` [Compound 305]: less than 100 nM. With `C=CC(=O)N1CC[C@@H](N(C)c2nc(OC[C@@]34CCCN3C[C@H](F)C4)nc3cc(-c4ccc(F)c5sc(N)c(C#N)c45)c(C(F)(F)F)cc23)C1` [Compound 306], the IC50 was less than 100 nM. Consider `C=CC(=O)N1C[C@H](C)N(c2nc(OCC34CCCN3C[C@H](F)C4)nc3c(F)c(-c4ccc(F)c5sc(C(F)F)nc45)c(C(F)(F)F)cc23)C[C@H]1C` (stereo partly shown) [Compound 307], for which the IC50 is less than 100 nM. The result for `C=C(F)C(=O)N1CC[C@@H](N(C)c2nc(OC[C@@]34CCCN3C[C@H](F)C4)nc3c(F)c(-c4ccc(F)c5sc(N)nc45)c(C(F)(F)F)cc23)C1` [Compound 308] reads less than 100 nM.

In the case of `C=CC(=O)N1C[C@H](N(C)c2nc(OC[C@@]34CCCN3C[C@H](F)C4)nc3cc(-c4ccc(F)c5sc(N)nc45)c(C(F)(F)F)cc23)C[C@H]1C` [Compound 309], the IC50 is less than 100 nM.

For the molecule `C=CC(=O)N1CC[C@@H](N(C)c2nc(OC[C@@]34CCCN3C[C@H](F)C4)nc3c(F)c(-c4ccc(F)c5sc(C(F)F)nc45)c(C(F)(F)F)cc23)C1` [Compound 310], the IC50 was greater than 1000 nM.

With `C=CC(=O)N1CC[C@@H](N(C)c2nc(OC[C@@]34CCCN3C[C@H](F)C4)nc3c(F)c(-c4ccc(F)c5sc(N)c(C#N)c45)ccc23)C1` [Compound 311], the IC50 was less than 100 nM.

As for `C=CC(=O)N1C[C@H](C)N(c2nc(OC[C@@]34CCCN3C[C@H](F)C4)nc3c(F)c(-c4ccc(F)c5sc(N)c(C#N)c45)ccc23)C[C@H]1C` [Compound 312], the IC50 was less than 100 nM. Next, `C=CC(=O)N1C[C@@H](F)[C@@H](N(C)c2nc(OC[C@@]34CCCN3C[C@H](F)C4)nc3cc(-c4ccc(F)c5sc(N)c(C#N)c45)c(C(F)(F)F)cc23)C1` [Compound 315, 4-(4-(((3S,4R)-1-acryloyl-4-fluoropyrrolidin-3-yl)(methyl)amino)-2-(((2R,7aS)-2-fluorotetrahydro-1H-pyrrolizin-7a(5H)-yl)methoxy)-6-(trifluoromethyl)quinazolin-7-yl)-2-amino-7-fluorobenzo[b]thiophene-3-carbonitrile]: less than 100 nM; `C=CC(=O)N1C[C@@H](F)[C@@H](N(C)c2nc(OC[C@@]34CCCN3C[C@H](F)C4)nc3c(F)c(-c4ccc(F)c5sc(N)c(C#N)c45)c(C(F)(F)F)cc23)C1` [Compound 316]: less than 100 nM; `C=CC(=O)N1C[C@@H](F)[C@@H](N(C)c2nc(OC[C@@]34CCCN3C[C@H](F)C4)nc3cc(-c4ccc(F)c5sc(N)nc45)c(C(F)(F)F)cc23)C1` [Compound 317]: less than 100 nM. The result for `C=CC(=O)N1CCN(c2nc(OC[C@@]34CCCN3C[C@H](F)C4)nc3c(F)c(-c4ccc(F)c5sc(N)c(C#N)c45)c(C(F)(F)F)cc23)C[C@H]1C` [Compound 318] reads less than 100 nM; that for `C=CC(=O)N1C[C@H](N(C)c2nc(OC[C@@]34CCCN3C[C@H](F)C4)nc3c(F)c(-c4ccc(F)c5sc(N)c(C#N)c45)ccc23)C[C@H]1C` [Compound 319], less than 100 nM.

Consider `C=CC(=O)N1C[C@H](F)[C@@H](N(C)c2nc(OC[C@@]34CCCN3C[C@H](F)C4)nc3cc(-c4ccc(F)c5sc(N)c(C#N)c45)c(C(F)(F)F)cc23)C1` [Compound 320], for which the IC50 was less than 100 nM. In the case of `C=CC(=O)N1[C@@H](C)CN(c2nc(OC[C@@]34CCCN3C[C@H](F)C4)nc3c(F)c(-c4ccc(F)c5sc(N)c(C#N)c45)c(C(F)(F)F)cc23)C[C@@H]1C` [Compound 321], the IC50 is less than 100 nM.

On to `C=CC(=O)N1CCN(c2nc(OC[C@@]34CCCN3C[C@H](F)C4)nc3c(F)c(-c4ccc(F)c5sc(N)c(C#N)c45)c(C(F)(F)F)cc23)CC12CC2` [Compound 322], for which the IC50 was less than 100 nM. The result for `C=CC(=O)N1C[C@H](C)N(c2nc(OC[C@@]34CCCN3C[C@H](F)C4)nc3c(F)c(-c4ccc(F)c5sc(N)c(C#N)c45)c(C#N)cc23)C[C@H]1C` [Compound 324, 4-((2S,5R)-4-acryloyl-2,5-dimethylpiperazin-1-yl)-7-(2-amino-3-cyano-7-fluorobenzo[b]thiophen-4-yl)-8-fluoro-2-(((2R,7aS)-2-fluorotetrahydro-1H-pyrrolizin-7a(5H)-yl)methoxy)quinazoline-6-carbonitrile] reads less than 100 nM; that for `C=CC(=O)N1CC[C@@H](N(C)c2nc(OC[C@@]34CCCN3C[C@H](F)C4)nc3c(F)c(-c4ccc(F)c5sc(N)c(C#N)c45)c(C#N)cc23)C1` [Compound 325], less than 100 nM; that for `C=CC(=O)N1C[C@H](C)N(c2nc(OC[C@@]34CCCN3C[C@H](F)C4)nc3c(F)c(-c4ccc(F)c5sc(N)nc45)c(C#N)cc23)C[C@H]1C` [Compound 326], less than 100 nM.

Take `C=CC(=O)N1C[C@H](F)[C@@H](N(C)c2nc(OC[C@@]34CCCN3C[C@H](F)C4)nc3c(F)c(-c4ccc(F)c5sc(N)c(C#N)c45)c(C(F)(F)F)cc23)C1` [Compound 327]: the IC50 is less than 100 nM. The result for `C=CC(=O)N1C[C@H](C)N(c2nc(N3CC(N4CC(O)C4)C3)nc3c(F)c(-c4ccc(F)c5sc(N)c(C#N)c45)c(C(F)(F)F)cc23)C[C@H]1C` [Compound 328] reads less than 100 nM; that for `C=CC(=O)N1CCN(c2nc(OC[C@@]34CCCN3C[C@H](F)C4)nc3c(F)c(-c4ccc(F)c5sc(N)c(C#N)c45)c(C(F)(F)F)cc23)C[C@@H]1C` [Compound 329], less than 100 nM; that for `C=CC(=O)N1[C@H](C)CN(c2nc(OC[C@@]34CCCN3C[C@H](F)C4)nc3c(F)c(-c4ccc(F)c5sc(N)c(C#N)c45)c(C(F)(F)F)cc23)C[C@H]1C` [Compound 330], 100 to 1000 nM. Regarding `C=CC(=O)N1C[C@H](C)N(c2nc(N3CC(N4CC(OC)C4)C3)nc3c(F)c(-c4ccc(F)c5sc(N)c(C#N)c45)c(C(F)(F)F)cc23)C[C@H]1C` [Compound 331], the IC50 is less than 100 nM.

For `C=CC(=O)N1C[C@H](C)N(c2nc(OC[C@@]34CCCN3C[C@H](F)C4)nc3c(F)c(-c4ccc(F)c5sc(N)c(C#N)c45)c(F)cc23)C[C@H]1C` [Compound 333], the IC50 was less than 100 nM. The result for `C=CC(=O)N1C[C@H](C)N(c2nc(OC[C@]34CCCN3C[C@@H](F)C4)nc3c(F)c(-c4ccc(F)c5sc(N)c(C#N)c45)c(C(F)(F)F)cc23)C[C@H]1C` [Compound 334] reads less than 100 nM; that for `C=CC(=O)N1C[C@H](F)[C@@H](N(C)c2nc(OC[C@@]34CCCN3C[C@H](F)C4)nc3cc(-c4ccc(F)c5sc(N)nc45)c(C(F)(F)F)cc23)C1` [Compound 335], less than 100 nM; that for `C=CC(=O)N1CC[C@H](N(C)c2nc(OC[C@@]34CCCN3C[C@H](F)C4)nc3c(F)c(-c4ccc(F)c5sc(N)c(C#N)c45)c(F)cc23)C1` [Compound 336], 100 to 1000 nM.

Regarding `C=CC(=O)N1CC[C@@H](N(C)c2nc(OC[C@@]34CCCN3C[C@H](F)C4)nc3c(F)c(-c4ccc(F)c5sc(N)c(C#N)c45)c(C(F)(F)F)cc23)[C@H]1CF` [Compound 337], the IC50 was less than 100 nM.

`C=CC(=O)N1C[C@H](C)N(c2nc(N3CC(N4CC5(CC5)C4)C3)nc3c(F)c(-c4ccc(F)c5sc(N)c(C#N)c45)c(C(F)(F)F)cc23)C[C@H]1C` [Compound 338, 4-(2-(3-(5-azaspiro[2.3]hexan-5-yl)azetidin-1-yl)-4-((2S,5R)-4-acryloyl-2,5-dimethylpiperazin-1-yl)-8-fluoro-6-(trifluoromethyl)quinazolin-7-yl)-2-amino-7-fluorobenzo[b]thiophene-3-carbonitrile]: the IC50 was less than 100 nM. The result for `C=CC(=O)N1CC[C@@H]2[C@H]1CN2c1nc(OC[C@@]23CCCN2C[C@H](F)C3)nc2c(F)c(-c3ccc(F)c4sc(N)c(C#N)c34)c(C(F)(F)F)cc12` [Compound 339] reads less than 100 nM; that for `C=CC(=O)N1CC[C@@H](N(C)c2nc(N3CC(N4CC5(CC5)C4)C3)nc3c(F)c(-c4ccc(F)c5sc(N)c(C#N)c45)c(C(F)(F)F)cc23)C1` [Compound 340], less than 100 nM. The result for `C=CC(=O)N1C[C@H](C)N(c2nc(OC[C@@]34CCCN3C[C@H](OC)C4)nc3c(F)c(-c4ccc(F)c5sc(N)c(C#N)c45)c(C(F)(F)F)cc23)C[C@H]1C` [Compound 341] reads less than 100 nM; that for `C=CC(=O)N1CC[C@@H](N(C)c2nc(OC[C@@]34CCCN3C[C@H](F)C4)nc3c(F)c(-c4ccc(F)c5sc(N)c(C#N)c45)c(Cl)cc23)C1` [Compound 342], less than 100 nM; that for `C=CC(=O)N1CC[C@@H](N(C)c2nc(OC[C@@]34CCCN3C[C@H](F)C4)nc3c(F)c(-c4ccc(F)c5sc(N)c(C#N)c45)c(F)cc23)C1` [Compound 343], less than 100 nM. The result for `C=CC(=O)N1CCN(c2nc(OC[C@@]34CCCN3C[C@H](F)C4)nc3c(F)c(-c4ccc(F)c5sc(N)c(C#N)c45)c(C(F)(F)F)cc23)CC1` [Compound 345] reads less than 100 nM; that for `C=CC(=O)N1C[C@H](C)N(c2nc(OCC34CCCN3CCC4)nc3c(F)c(-c4ccc(F)c5sc(N)c(C#N)c45)c(C(F)(F)F)cc23)C[C@H]1C` [Compound 346], less than 100 nM. `C=CC(=O)N1CCN(c2nc(OC[C@@]34CCCN3C[C@H](F)C4)nc3c(F)c(-c4ccc(F)c5sc(N)c(C#N)c45)c(C(F)(F)F)cc23)[C@@H](C)C1` [Compound 347]: the IC50 was less than 100 nM.
